According to patent US20060069132A1, “Azolecarboxamide herbicides” (priority 2004, published 2006):

Legend:
[1] = test system: pigweed; test: Test C pre-/postemergence herbicide test; type: in vivo, Amaranthus retroflexus; details: preemergence
How it was run: (§1)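 Emerged plants at the 1- to 4-leaf stage (2–18 cm), or freshly planted seeds, received test chemicals in a non-phytotoxic solvent mixture with surfactant. Response was visually scored against controls after 12 to 14 days in the greenhouse, on a 0 (no effect) to 100 (complete control) scale.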

[2] = test system: rice; test: Test C flooded paddy test; type: in vivo, Oryza sativa; details: for Plant response rating, Rice: 500 g ai/ha, visual rating after 12 to 14 days
How it was run: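 Injury scored visually against controls on a 0 (no effect) to 100 (complete control) scale, 12 to 14 days after treatment in greenhouse. Flooded paddy plants treated at 2-leaf stage; postemergence plants at 1- to 4-leaf stage, 2 to 18 cm tall.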

[3] = test system: giant foxtail; test: Test A pre-/postemergence herbicide test; type: in vivo, Setaria faberi
How it was run: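 Both application timings were run together: directed soil spray over freshly planted seeds in sandy loam, and runoff spray onto 2–10 cm seedlings. Evaluation after ~10 days in greenhouse used a 0–100 visual scale versus untreated controls.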

[4] = test system: lambsquarters; test: Test B pre-/postemergence herbicide test; type: in vivo, Chenopodium album
How it was run: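 Response was scored visually 13 to 15 days after treatment against untreated greenhouse controls, 0 meaning no effect and 100 complete control. Formulations (solvent mixture plus surfactant) went onto soil after planting, onto foliage of 1- to 4-leaf plants, and onto 2-leaf plants in a flooded paddy set including rice and barnyardgrass.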

[5] = test system: goosegrass; test: Test C pre-/postemergence herbicide test; type: in vivo, Eleusine indica; details: preemergence
How it was run: as §1

[6] = test system: Surinam grass; test: Test C pre-/postemergence herbicide test; type: in vivo, Urochloa decumbens; details: preemergence
How it was run: as §1

[7] = test system: barnyardgrass; test: Test B flooded paddy test; type: in vivo, Echinochloa crus-galli; details: 1000 g ai/ha, scale 0 to 100 (0 no effect, 100 complete control)
How it was run: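 Formulated test chemicals went onto postemergence plants measuring 2 to 18 cm, at one to four leaves. For the paddy assay, species had reached two leaves. Scoring took place 13–15 days later by eye, relative to untreated plants, using 0 for no effect up to 100 for full control.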

[8] = test system: soybean; test: Test C pre-/postemergence herbicide test; type: in vivo, Glycine max; details: preemergence
How it was run: as §1

[9] = 125 g ai/ha, scale 0 (no effect) to 100 (complete control), visual, 12 to 14 days
[10] = 125 g ai/ha, scale 0 to 100 (0 no effect, 100 complete control)
[11] = 250 g ai/ha, scale of 0 to 100, 0 is no effect, 100 is complete control
[12] = scale 0 to 100 (0 no effect, 100 complete control)
[13] = Postemergence, 500 g ai/ha, 0 to 100 scale, 0 no effect, 100 complete control
[14] = Postemergence, 2000 g ai/ha, 0 to 100 scale, 0 no effect, 100 complete control
[15] = Preemergence, 2000 g ai/ha, visual rating, 0 to 100 scale (0 no effect, 100 complete control)
[16] = preemergence, 500 g ai/ha, visual injury, 0 to 100 scale (0 no effect, 100 complete control)
[17] = 125 g ai/ha; 0 = no effect, 100 = complete control; preemergence
[18] = 500 g ai/ha; visual rating, 0 = no effect, 100 = complete control; preemergence
[19] = postemergence, 500 g ai/ha; scale 0 to 100, 0 is no effect, 100 is complete control
[20] = 500 g ai/ha, scale 0 to 100 (0 no effect, 100 complete control), visual, 12 to 14 days

Structure (SMILES) | Plant response rating, Pigweed ([1]; 62 g ai/ha, scale 0 to 100) | Plant response rating, Pigweed [1, 9] | Plant response rating, Pigweed ([1]; 250 g ai/ha, scale 0-100) | Rice plant response rating ([2]; 62 g ai/ha, scale 0 to 100) | Rice plant response rating [2, 10] | Rice plant response rating [2, 11] | Plant response rating, Rice [2, 12] | Foxtail, Giant plant response rating [3, 13] | Plant response rating, Foxtail, Giant [3, 14] | Foxtail, Giant plant response rating [3, 15] | Foxtail, Giant plant response rating [3, 16] | Lambsquarters plant response rating (0 to 100 scale) [4, 17] | Plant response rating, Lambsquarters [4, 18] | Lambsquarters plant response rating [4, 19] | Plant response rating, Goosegrass ([5]; 62 g ai/ha, scale 0 to 100) | Plant response rating, Goosegrass [5, 9] | Plant response rating, Goosegrass ([5]; 250 g ai/ha, scale 0-100) | Plant response rating, Surinam Grass ([6]; 62 g ai/ha, scale 0 to 100) | Plant response rating, Surinam Grass ([6]; 250 g ai/ha, scale 0-100) | Barnyardgrass plant response rating [7] | other results
CCNC(=O)c1ccc(F)c(NC(=O)c2cc(C3(C)CC3)nn2CC)c1 [Compound 300] | 100 | 100 | 100 | 40 | 55 | 70 | 75 | 55 | 90 | 100 | 95 | 100 | 100 | 80 | 85 | 100 | 100 | 30 | 100 | 90 | Lambsquarters plant response rating ([4]; 125 g ai/ha; visual rating, scale 0 (no effect) to 100 (complete control); postemergence): 70; Plant response rating, Soybean ([8]; 62 g ai/ha, scale 0 to 100): 0; Plant response rating, Soybean ([8]; 250 g ai/ha, scale 0-100): 70
CCNC(=O)c1ccc(F)c(NC(=O)C2CC(C(C)(C)C)=NN2CC)c1 (racemic) [Compound 269] | 100 | 100 | 100 | 45 | 50 | 75 | 80 | 35 | 65 | 100 | 100 | 100 | 100 | 70 | 70 | 85 | 95 | 5 | 85 | 90 | Plant response rating, Pigweed [1, 20]: 100; Lambsquarters plant response rating ([4]; postemergence, 125 g ai/ha; visual rating, scale 0 (no effect) to 100 (complete control)): 50; Plant response rating, Goosegrass [5, 20]: 100; Plant response rating, Surinam Grass [6, 20]: 95; Plant response rating, Soybean ([8]; 62 g ai/ha, scale 0 to 100): 0; Plant response rating, Soybean ([8]; 250 g ai/ha, scale 0-100): 50; Plant response rating, Soybean [8, 20]: 60
